Literature values in patent US11278512B2, “Compositions comprising a metal and L-serine, and uses thereof” (Brain Chemistry Labs, priority 2019, dated 2022).

Tests used:
[1] = tested on: neurofibrillary tangles (NFTs) and β-amyloid plaques
[2] = design: reduction in ALSFRS (Amyotrophic Lateral Sclerosis Functional Rating Scale): dose or concentration left out as unconfirmed

Compound	BMAA-induced microglial activation and proteinopathies along the spine, including deposition of TDP-43 and FUS ([1]; BMAA-induced)	density of neurofibrillary tangles (NFTs) and β-amyloid plaques in the brain ([1]; non-human primates)	misincorporation of BMAA into human neuroproteins; protein misfolding, aggregation and apoptosis induced by BMAA (human neuroproteins)	reduction in ALSFRS (Amyotrophic Lateral Sclerosis Functional Rating Scale) ([2]; daily dosing with for three months, approximates the reduction achieved by Riluzole) [%]	safety when administered to ALS patients ([2]; up to 90 mg/day)
N[C@@H](CO)C(=O)O [L-serine]	blocks	decreases the density	blocks misincorporation	–	–
[Zn] [Zinc, zinc]	–	–	–	~30	safe
